Columns and labels:
old obese Zucker rats = test: Plasma free fatty acids, ketone bodies and liver HMG-CoA synthase in old obese Zucker rats (Table 7); format: in vivo, rat; conditions: 21 week-old male obese Zucker (fa/fa) rats, standard diet with 0.15% TTA for 15 days, means ± SD
Procedure: (§1) Glucose (GLU, Boehringer Mannheim, Germany), free fatty acids (NEFA, C ACS-ACOD kit; Wako Chemicals, Dalton, USA) and b-hydroxybutyrate (310-A kit; Sigma Diagnostics Inc., St. Louis, USA) concentrations were measured using enzymatic methods. Insulin concentrations were determined with radioimmunoassay by (CIS bio International, Gif sur Yvette, France) using rat insulin as standard in the Zucker rats. In the Wistar Charles River rats, plasma glucose concentrations were measured with the aid of Beckman Glucose Analyzer (Fullerton, Calif., USA). Plasma insulin levels were measured using a RIA kit from Linco Research Inc. (St. Charles, Mo., USA). Phospholipids were measured by the enzymatic method of bioMérieux, Marcy-l {grave over ( )}Etoile, France, Triacylglycerol by the Technicon Method no. SA4-0324L90, USA and Cholesterol by the Technicon Method no. SA4-0305L90, USA.
(§2) Freshly isolated livers from individual old Zucker rats, were homogenised in ice-cold sucrose buffer (0.25 M sucrose, 10 mM HEPES (pH 7.4) and 2 mM EDTA). Post-nuclear and mitochondrial fractions were prepared using preparative differential centrifugation according to DeDuve et al. (De Duve, C., et al., Biochem. J., 60, 604-617 1955.) Modifications, purity and yield were as described earlier (Garras, A., et al., Biochim. Biophys. Acta, 1255, 154-160 1995.). Acid soluble products were measured in post-nuclear and mitochondrial enriched fractions, using [1-^14C]-palmitoyl-CoA and [1-^14C]-palmitoyl-L-carnitine (Radiochemical Centre, Amersham, England) as substrates as described earlier (Willumsen, N., et al., J. Lipid Res., 34, 13-22 1993. Carnitine palmitoyltransferase-I and -II activities were measured in the post-nuclear and mitochondrial fractions essentially as described by Bremer (Bremer, J., Biochim. Biophys. Acta, 665, 628-631 1981.) and 3-hydroxy-3-methylglutharyl-CoA synthase was measured according to Clinkenbeard et al. (Clinkenbeard, K. D., et al., J. Biol. Chem, 250, 3108-3116 1975.) in the mitochondrial fractions.
Data are means±SD of six animals in both the control- and the experimental group. Free fatty acids (FFA) and ketone bodies ([…]) were measured in plasma and 3-hydroxy-3-methylglutaryl (HMG) -CoA synthase activities were measured in mitochondrial fractions prepared from the liver from 21 week-old male obese Zucker (fa/fa) rats given either a standard diet (control) or a standard diet enriched with 0.15% TTA for 15 days.

Escherichia coli = test: Test for mutagenic activity in Escherichia coli strains; format: cell-based; conditions: 3-1000 mg/plate (TTA) 2-5000 mg/plate (TSA)
Excerpt: Tests for mutagenic activity have been performed by Covance Laboratories Limited, England. […] Furthermore, TTA was not mutagenic when tested in mouse lymphoma cells […] L5178Y.

[1] = tested on: 4 month old obese Zucker (fa/fa) rats; test: Blood insulin and glucose in 4 month old obese Zucker (fa/fa) rats (Example 13); format: in vivo, rat; conditions: 4 month old Zucker (fa/fa) rats, chow with 0.15% TTA, 21 days (FIG. 6)
Procedure: as §1
The rats were given a standard chow diet, either with (n=5) or without (n=6) 0.15% TTA. Following 21 days of treatment, blood was collected and the levels of insulin and glucose measured. Data are means±S.D.

[2] = tested on: obese Zucker (fa/fa) rats; test: Liver mitochondrial fatty acid oxidation, CPT-I and CPT-II after TTA feeding (Example 16); format: in vivo, rat; conditions: chow with 0.15% TTA
Procedure: as §2
RNA extraction (Chomczynski, P., et al., Anal. Biochem., 162, 156-159 1987.), Northern blot analysis and slot blotting of RNA onto nylon filters, and hybridisation to immobilised RNA were performed as earlier described (Vaagenes, H., et al., Biochem. Pharmacol., 56, 1571-1582 1998.). […]
Obese Zucker (fa/fa) rats were given a standard chow either with (n=6) or without (n=5) 0.15% TTA. […] Fatty acid oxidation rates were measured using [1-^14C]-palmitoyl CoA or [1-^14C]-palmitoyl-L-carnitine as substrates (A) CPT-I (B) and CPT-II (C) were measured in the mitochondrial factions. […] The relative mRNA levels were determined by densiometric scanning of the autoradiograms and the different mRNA levels were normalised to the respective 28S rRNA and the means for the controls were set to 1. […] Values are expressed as the mean±S.D.

PPARα = target: T1, PPARα (Homo sapiens, UniProt Q07869); test: Ligand of PPARα; format: binding
T1 sequence (Q07869 1-468): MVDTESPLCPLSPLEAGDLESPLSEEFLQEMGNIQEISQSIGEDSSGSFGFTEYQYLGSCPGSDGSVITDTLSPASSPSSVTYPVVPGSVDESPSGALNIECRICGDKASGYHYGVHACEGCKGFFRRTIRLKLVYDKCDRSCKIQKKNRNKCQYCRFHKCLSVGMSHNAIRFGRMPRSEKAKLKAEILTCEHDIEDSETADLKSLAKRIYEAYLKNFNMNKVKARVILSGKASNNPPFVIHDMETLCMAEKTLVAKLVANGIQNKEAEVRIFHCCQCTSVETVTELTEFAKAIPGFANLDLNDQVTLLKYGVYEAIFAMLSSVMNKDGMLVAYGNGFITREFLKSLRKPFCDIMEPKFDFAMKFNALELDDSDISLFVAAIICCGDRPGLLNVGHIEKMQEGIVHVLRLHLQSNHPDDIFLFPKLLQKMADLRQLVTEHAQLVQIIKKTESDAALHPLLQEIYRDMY

Substance: Tetradecylthioacetic acid [TTA]
- HMG-CoA synthase activity (nmol/min/mg protein) (old obese Zucker rats; liver mitochondrial fractions): 27 ± 6 nmol/min/mg protein
- 4-OH butyrate (old obese Zucker rats; plasma): 3.44 ± 1.37 mmol/L
- FFA (mEq/L) (old obese Zucker rats; plasma): 0.53 ± 0.21 mEq/L
- FFA/ketone ratio (old obese Zucker rats; plasma): 0.17 ± 0.09
- Induction of mutations in strains of Escherichia coli (Escherichia coli): did not induce mutations
- Blood glucose concentration [1]: reduces
- Blood insulin concentration [1]: reduces
- Activity and mRNA levels of CPT-I ([2]; 21 days (FIG. 8B)): increase
- Activity and mRNA levels of CPT-II ([2]; 21 days (FIG. 8C)): increase
- Increase of liver fatty acid oxidation ([2]; 21 days, palmitoyl-CoA and palmitoyl-L-carnitine as substrates (FIG. 8A)): more than 7 fold
- Ligand of PPARα (PPARα): potent ligand

Source: patent US6365628B1 (Thia Medica AS, priority 1998, dated 2002)
